The values that follow come from ChEMBL document CHEMBL1127987, “()11-Amino-2,6-dimethyl-1,2,3,4-tetrahydro-6H-quinindolin-1-one, a novel gabaA modulator with potential anxiolytic activity” (Bioorg Med Chem Lett, 1994).

Assay [1] concerns the target GABA-A receptor; anion channel. Put plainly: Displacement of [3H]flunitrazepam from rat cerebral cortex. It counts as tissue-based. A general note: Loss of bound radioactivity is the signal in a displacement assay; it reports binding, not function.
The target of assay [2] is GABA-A receptor; anion channel. Put plainly: Inhibition of [35S]TBPS binding to Gamma-aminobutyric acid A (GABA-A) receptor of rat brain in the presence of 5 uM GABA. The note with it: for pIC50: read-out: IC50.
For assay [3], the system named is Rattus norvegicus. Put plainly: Punished responding phase in Geller-Seifter test was determined at 1 hr post-dose of 20 mg/Kg p.o. In kind it is functional.
The test system of assay [4] is Rattus norvegicus. Put plainly: Punished responding phase in Geller-Seifter test was determined at 2 hr post-dose of 20 mg/Kg p.o. In kind it is functional.
The species entered for assay [5] is Rattus norvegicus. Description: Minimum effective peroral dose in Geller-Seifter paradigm. It counts as functional. The note with it: po, read-out: MED.
Assay [6] relates to Rattus norvegicus. Put plainly: Number of animals responding out of those tested (Nr/N) in Geller-Seifter test was determined at 2 hr post-dose of 20 mg/Kg p.o. (Animals tested 8). In kind it is functional.
For assay [7], the system named is Rattus norvegicus. Put plainly: Number of animals responding out of those tested (Nr/N) in Geller-Seifter test was determined at 1 hr post-dose of 20 mg/Kg p.o. (Animals tested 6). It counts as functional.
The test system of assay [8] is GABA-A receptor; anion channel. Put plainly: Displacement of [3H]flunitrazepam from rat cerebral cortex (Insoluble). In kind it is tissue-based.
Assay [9] concerns Rattus norvegicus. Description: Punished responding phase in Geller-Seifter test was determined at 1 hr post-dose of 10 mg/Kg p.o. It counts as functional.
Assay [10] concerns Rattus norvegicus. Put plainly: Punished responding phase in Geller-Seifter test was determined at 1 hr post-dose of 100 mg/Kg p.o. In kind it is functional.
Assay [11] has as its system Rattus norvegicus. Put plainly: Punished responding phase in Geller-Seifter test was determined at 1 hr post-dose of 2.5 mg/Kg p.o. It counts as functional.
Assay [12] deals with Rattus norvegicus. Put plainly: Punished responding phase in Geller-Seifter test was determined at 1 hr post-dose of 5 mg/Kg p.o. It counts as functional.
The test system of assay [13] is Rattus norvegicus. Put plainly: Punished responding phase in Geller-Seifter test was determined at 1 hr post-dose of 50 mg/Kg p.o. In kind it is functional.
The subject of assay [14] is Rattus norvegicus. Put plainly: Punished responding phase in Geller-Seifter test was determined at 2 hr post-dose of 10 mg/Kg p.o. It counts as functional.
The subject of assay [15] is Rattus norvegicus. Put plainly: Punished responding phase in Geller-Seifter test was determined at 2 hr post-dose of 100 mg/Kg p.o. In kind it is functional.
Assay [16] relates to Rattus norvegicus. Description: Punished responding phase in Geller-Seifter test was determined at 2 hr post-dose of 50 mg/Kg p.o. In kind it is functional.
For assay [17], the system named is Rattus norvegicus. Description: Number of animals responding out of those tested (Nr/N) in Geller-Seifter test was determined at 1 hr post-dose of 10 mg/Kg p.o. (Animals tested 6). In kind it is functional.
The subject of assay [18] is Rattus norvegicus. Description: Number of animals responding out of those tested (Nr/N) in Geller-Seifter test was determined at 1 hr post-dose of 100 mg/Kg p.o. (Animals tested 6). In kind it is functional.
The subject of assay [19] is Rattus norvegicus. Put plainly: Number of animals responding out of those tested (Nr/N) in Geller-Seifter test was determined at 1 hr post-dose of 2.5 mg/Kg p.o. (Animals tested 6). It counts as functional.
The subject of assay [20] is Rattus norvegicus. Description: Number of animals responding out of those tested (Nr/N) in Geller-Seifter test was determined at 2 hr post-dose of 20 mg/Kg p.o. (Animals tested 6). In kind it is functional.
Assay [21] relates to Rattus norvegicus. Put plainly: Number of animals responding out of those tested (Nr/N) in Geller-Seifter test was determined at 2 hr post-dose of 50 mg/Kg p.o. (Animals tested 6). In kind it is functional.
Assay [22] deals with Rattus norvegicus. Put plainly: Number of animals responding out of those tested (Nr/N) in Geller-Seifter test was determined at 1 hr post-dose of 5 mg/Kg p.o. (Animals tested 14). It counts as functional.
Assay [23] deals with Rattus norvegicus. Put plainly: Number of animals responding out of those tested (Nr/N) in Geller-Seifter test was determined at 1 hr post-dose of 50 mg/Kg p.o. (Animals tested 6). It counts as functional.
Assay [24] deals with Rattus norvegicus. Description: Number of animals responding out of those tested (Nr/N) in Geller-Seifter test was determined at 2 hr post-dose of 10 mg/Kg p.o. (Animals tested 14). In kind it is functional.
Assay [25] relates to Rattus norvegicus. Put plainly: Number of animals responding out of those tested (Nr/N) in Geller-Seifter test was determined at 2 hr post-dose of 100 mg/Kg p.o. (Animals tested 6). In kind it is functional.
Assay [26] concerns Rattus norvegicus. Description: Number of animals responding out of those tested (Nr/N) in Geller-Seifter test was determined at 1 hr post-dose of 10 mg/Kg p.o. (Animals tested 15). In kind it is functional.
Assay [27] deals with Rattus norvegicus. Put plainly: Number of animals responding out of those tested (Nr/N) in Geller-Seifter test was determined at 1 hr post-dose of 100 mg/Kg p.o. (Animals tested 16). In kind it is functional.
In assay [28] the test system is Rattus norvegicus. Description: Number of animals responding out of those tested (Nr/N) in Geller-Seifter test was determined at 1 hr post-dose of 20 mg/Kg p.o. (Animals tested 16). In kind it is functional.
Assay [29] has as its system Rattus norvegicus. Description: Number of animals responding out of those tested (Nr/N) in Geller-Seifter test was determined at 2 hr post-dose of 50 mg/Kg p.o. (Animals tested 16). In kind it is functional.
The test system of assay [30] is Rattus norvegicus. Put plainly: Number of animals responding out of those tested (Nr/N) in Geller-Seifter test was determined at 1 hr post-dose of 5 mg/Kg p.o. (Animals tested 6). It counts as functional.
The test system of assay [31] is Rattus norvegicus. Description: Number of animals responding out of those tested (Nr/N) in Geller-Seifter test was determined at 1 hr post-dose of 50 mg/Kg p.o. (Animals tested 16). It counts as functional.
The test system of assay [32] is Rattus norvegicus. Description: Number of animals responding out of those tested (Nr/N) in Geller-Seifter test was determined at 2 hr post-dose of 20 mg/Kg p.o. (Animals tested 16). In kind it is functional.
Assay [33] relates to Rattus norvegicus. Put plainly: Punished responding phase in Geller-Seifter test was determined at 2 hr post-dose of 5 mg/Kg p.o. It counts as functional.
The subject of assay [34] is Rattus norvegicus. Description: Number of animals responding out of those tested (Nr/N) in Geller-Seifter test was determined at 2 hr post-dose of 5 mg/Kg p.o. (Animals tested 16). In kind it is functional.
The subject of assay [35] is Rattus norvegicus. Put plainly: Number of animals responding out of those tested (Nr/N) in Geller-Seifter test was determined at 1 hr post-dose of 5 mg/Kg p.o. (Animals tested 8). It counts as functional.
The target of assay [36] is T1, GABA-A receptor; anion channel (Rattus norvegicus) (UniProt O09028+P15431+P18506+P18508+P19969+P20236+P23574+P23576+P28471+P28473+P30191+P62813+P63079+P63138+Q91ZM7+Q9ES14). The note with it: Cerebral cortex, 0.12 uM.
Description: Inhibition of [3H]Flunitrazepam binding to rat cerebral cortex at 0.12 uM
Assay [37] concerns the target T1, GABA-A receptor; anion channel (Rattus norvegicus). The note with it: 0.01 uM.
Description: Inhibition of [35S]TBPS binding to Gamma-aminobutyric acid A (GABA-A) receptor of rat brain in the presence of 5 uM GABA at 0.01 uM

pIC50: −log10 of the molar value.

As usually defined, the pIC50 is the IC50 on a negative log10 scale, so that one unit is a factor of ten. For the compound `CCC(=O)c1c(C)nc2c(c1N)c1ccccc1n2C`, the pIC50 was less than 4.00 in assay [1] and 5.80 in assay [2]. For the same compound, the Change is given as 41% in the assay with Rattus norvegicus [3] and 28% in the assay with Rattus norvegicus [4]. For the same compound, in the assay listed under Rattus norvegicus [5], the minimal effective dose stood at 20 mg/kg. Moreover, the Nr/N with Rattus norvegicus [6] and with Rattus norvegicus [7] was 5 throughout.

With `CCCC(=O)c1c(C)nc2c(c1N)c1ccccc1n2C`, the pIC50 in [2] is 5.64. Moreover, the minimal effective dose in the assay filed under Rattus norvegicus [5] came out at 20 mg/kg.

Consider `Cn1c2ccccc2c2c(N)c3c(nc21)CCOC3=O`, for which the IC50 result in assay [8] and in assay [2] was “Insoluble” each time. In addition, the minimal effective dose in the assay filed under Rattus norvegicus [5] was more than 20 mg/kg.

`CC1CCc2nc3c(c(N)c2C1=O)c1ccccc1n3C` (centres undefined): the pIC50 in assay [1] is less than 4.00; in [2], 6.02. The Change is 43% with Rattus norvegicus [9]; 137% in the assay with Rattus norvegicus [10]; 0% in the assay on Rattus norvegicus [11]; 52% in the assay on Rattus norvegicus [3]; 19% in the assay on Rattus norvegicus [12]; 146% in the assay on Rattus norvegicus [13]. In addition, the Change in the assay on Rattus norvegicus [14] is on record as 22%; in the assay on Rattus norvegicus [15], 141%; in the assay with Rattus norvegicus [4] it was 36%; with Rattus norvegicus [16] it was 62%. For the same compound, the minimal effective dose in the assay listed under Rattus norvegicus [5] was found to be 5 mg/kg. Moreover, the Nr/N in the assay on Rattus norvegicus [17] was found to be 5; with Rattus norvegicus [18], 6; with Rattus norvegicus [19], 0; in the assay on Rattus norvegicus [20], 6; in the assay on Rattus norvegicus [21], 6; with Rattus norvegicus [7], 5. In addition, the Nr/N in the assay on Rattus norvegicus [22] was 8; in the assay on Rattus norvegicus [23], 5; with Rattus norvegicus [24], 7; in the assay on Rattus norvegicus [25] it was 6.

As to `CCOC(=O)c1c(C)nc2c(c1N)c1ccccc1n2C`, the values for the pIC50 in [1] and in assay [2] were less than 4.00 and 5.70, respectively. In addition, the Change in the assay on Rattus norvegicus [9] came to 20%; in the assay with Rattus norvegicus [10], 122%; with Rattus norvegicus [3], 22%; in the assay with Rattus norvegicus [12], 2%; in the assay on Rattus norvegicus [13], 63%; in the assay on Rattus norvegicus [4], 6%. The compound also gave a Change in the assay on Rattus norvegicus [16] of 4%. The minimal effective dose in the assay filed under Rattus norvegicus [5] came out at 10 mg/kg. Further, the Nr/N in the assay with Rattus norvegicus [26] stood at 10; in the assay with Rattus norvegicus [27] it was 14; in the assay with Rattus norvegicus [28], 12; in the assay with Rattus norvegicus [29], 6; in the assay with Rattus norvegicus [30] it was 5; with Rattus norvegicus [31], 15. In the assay on Rattus norvegicus [32], this compound gave a Nr/N of 6.

As a reminder, the inhibition is the share of the control response that was lost under treatment. A high value points to strong suppression. For `CN1C(=O)CN=C(c2ccccc2)c2cc(Cl)ccc21` [DIAZEPAM], the Change is 57% with Rattus norvegicus [12] and 38% in the assay on Rattus norvegicus [33]. For the same compound, the minimal effective dose in the assay listed under Rattus norvegicus [5] amounted to 2.5 mg/kg. Moreover, the Nr/N in the assay on Rattus norvegicus [34] was found to be 8; in the assay with Rattus norvegicus [35], 6. The inhibition in assay [36] was 100%; in assay [37], less than 50%.

For the compound `CCC1CCc2nc3c(c(N)c2C1=O)c1ccccc1n3C` (centres undefined), the pIC50 in assay [2] was 6.03. Besides, the minimal effective dose in the assay listed under Rattus norvegicus [5] stood at 20 mg/kg.

Consider `Cc1nc2c(c(N)c1C(=O)O)c1ccccc1n2C`, for which the negative-log IC50 (pIC50) in [1] and in [2] was less than 4.00 throughout. In addition, the minimal effective dose in the assay listed under Rattus norvegicus [5] was more than 50 mg/kg.
